{"source": "ChEMBL document CHEMBL1140060", "about": "“Design, synthesis and biological evaluation of dihydronaphthalene and benzosuberene analogs of the combretastatins as inhibitors of tubulin polymerization in cancer chemotherapy” (Bioorg Med Chem, 2008)", "key": {"DU-145": {"system": "DU-145", "test": "Growth inhibition of human DU145 after 48 hrs by SRB assay", "assay_type": "functional", "conditions": "DU-145, 48 h"}, "[1]": {"test": "Inhibition of calf brain tubulin polymerization", "parameters": "species or system Bos taurus"}, "NCI-H460": {"system": "NCI-H460", "test": "Growth inhibition of human NCI-H460 after 48 hrs by SRB assay", "assay_type": "functional", "conditions": "NCI-H460, 48 h"}, "SK-OV-3": {"system": "SK-OV-3", "test": "Growth inhibition of human SK-OV-3 after 48 hrs by SRB assay", "assay_type": "functional", "conditions": "SK-OV-3, 48 h"}}, "note": "pIC50: −log10 of the molar value."}
{"smiles": "COc1ccc(C(=O)C2=CCCCc3c2cc(OC)c(OC)c3OC)cc1O", "values": [{"measurement": "GI50", "setting": "DU-145", "result": "> 10000", "unit": "nM"}, {"measurement": "pIC50", "setting": "[1]", "result": "< 4.40"}, {"measurement": "GI50", "setting": "NCI-H460", "result": "> 10000", "unit": "nM"}]}
{"smiles": "COc1ccc(C(=O)C2=CCCc3c2cc(OC)c(OC)c3OC)c(O)c1O", "values": [{"measurement": "GI50", "setting": "DU-145", "result": 3400, "unit": "nM"}, {"measurement": "GI50", "setting": "SK-OV-3", "result": 1400, "unit": "nM"}, {"measurement": "pIC50", "setting": "[1]", "result": "< 4.40"}, {"measurement": "GI50", "setting": "NCI-H460", "result": 2800, "unit": "nM"}]}
{"smiles": "COc1ccc2c(c1)CCCC=C2c1cc(OC)c(OC)c(OC)c1", "values": [{"measurement": "GI50", "setting": "DU-145", "result": 27, "unit": "nM"}, {"measurement": "GI50", "setting": "SK-OV-3", "result": 52, "unit": "nM"}, {"measurement": "pIC50", "setting": "[1]", "result": 5.85}, {"measurement": "GI50", "setting": "NCI-H460", "result": 51, "unit": "nM"}]}
{"smiles": "COc1ccc2c(c1O)CCCC(c1cc(OC)c(OC)c(OC)c1)=C2", "values": [{"measurement": "GI50", "setting": "DU-145", "result": 440, "unit": "nM"}, {"measurement": "GI50", "setting": "SK-OV-3", "result": 270, "unit": "nM"}, {"measurement": "pIC50", "setting": "[1]", "result": "< 4.40"}, {"measurement": "GI50", "setting": "NCI-H460", "result": 1200, "unit": "nM"}]}
{"smiles": "COc1ccc(C(=O)C2=CCCCc3c2cc(OC)c(OC)c3OC)c(O)c1O", "values": [{"measurement": "GI50", "setting": "DU-145", "result": "> 10000", "unit": "nM"}, {"measurement": "pIC50", "setting": "[1]", "result": "< 4.40"}, {"measurement": "GI50", "setting": "NCI-H460", "result": "> 10000", "unit": "nM"}]}
{"smiles": "COc1ccc2c(c1)CCCC(c1cc(OC)c(OC)c(OC)c1)=C2", "values": [{"measurement": "GI50", "setting": "DU-145", "result": 550, "unit": "nM"}, {"measurement": "GI50", "setting": "SK-OV-3", "result": 440, "unit": "nM"}, {"measurement": "pIC50", "setting": "[1]", "result": "< 4.40"}, {"measurement": "GI50", "setting": "NCI-H460", "result": 470, "unit": "nM"}]}
{"smiles": "COc1ccc(C(=O)C2=CCCc3c2cc(OC)c(OC)c3OC)cc1O", "values": [{"measurement": "GI50", "setting": "DU-145", "result": 3100, "unit": "nM"}, {"measurement": "pIC50", "setting": "[1]", "result": 4.62}, {"measurement": "GI50", "setting": "NCI-H460", "result": 6000, "unit": "nM"}]}
{"smiles": "COc1cc2c(cc1O)C(=O)C1c3cc(OC)c(OC)c(OC)c3CCC21", "note": "(stereo not given)", "values": [{"measurement": "GI50", "setting": "DU-145", "result": "> 10000", "unit": "nM"}, {"measurement": "pIC50", "setting": "[1]", "result": "< 4.40"}, {"measurement": "GI50", "setting": "NCI-H460", "result": "> 10000", "unit": "nM"}]}
{"smiles": "COc1ccc(CC2CCCCc3c2cc(OC)c(OC)c3OC)c(O)c1O", "note": "(stereo not given)", "values": [{"measurement": "GI50", "setting": "DU-145", "result": "> 10000", "unit": "nM"}, {"measurement": "pIC50", "setting": "[1]", "result": 5.13}, {"measurement": "GI50", "setting": "NCI-H460", "result": "> 10000", "unit": "nM"}]}
{"smiles": "COc1ccc2c(c1O)CCCC=C2c1cc(OC)c(OC)c(OC)c1", "values": [{"measurement": "GI50", "setting": "DU-145", "result": 0.0032, "unit": "nM"}, {"measurement": "GI50", "setting": "SK-OV-3", "result": "< 0.03", "unit": "nM"}, {"measurement": "pIC50", "setting": "[1]", "result": 5.77}, {"measurement": "GI50", "setting": "NCI-H460", "result": 0.028, "unit": "nM"}]}
{"smiles": "COc1ccc(/C=C\\c2cc(OC)c(OC)c(OC)c2)cc1O", "note": "[COMBRETASTATIN A4]", "values": [{"measurement": "GI50", "setting": "DU-145", "result": 2, "unit": "nM"}, {"measurement": "GI50", "setting": "SK-OV-3", "result": 0.13, "unit": "nM"}, {"measurement": "GI50", "setting": "NCI-H460", "result": 2, "unit": "nM"}]}
{"smiles": "COc1ccc(/C=C\\c2cc(OC)c(OC)c(OC)c2)c(O)c1O", "note": "[COMBRETASTATIN A-1]", "values": [{"measurement": "GI50", "setting": "DU-145", "result": 510, "unit": "nM"}, {"measurement": "GI50", "setting": "NCI-H460", "result": 2200, "unit": "nM"}]}
